“Also recorded” adds a separate entry of the source. Like-named read-outs stand apart in the source and are kept apart here.
How the values were obtained:
[1] = test system: HEK-Blue hTLR4 reporter cells; assay: MTT cell viability, human TLR4 reporter cells; assay type: cell-based; details: dose response, % viability normalized to vehicle (0.5% DMSO)
Description: (§1) TLR4/NF-κB activation was assessed using HEK-Blue™ hTLR4 and HEK-Blue™ mTLR4 (InvivoGen). The cells were treated with 1Z105 and 2B182C (2-fold serial dilutions starting from 10 μM) for 20 h. NF-κB inducible secreted embryonic alkaline phosphatase (SEAP) protein in the culture supernatant was measured according to manufacturer's protocol. To evaluate cell viability, 0.5 mg/mL 3-[4,5-dimethylthiazol-2-yl]-2,5-dipheyl tetrazolium bromide (MTT, Thermo Fisher Scientific) solution was added to each well and incubated at 37°C. Six hours later, formazan crystals were lysed with lysis buffer (15% SDS and 0.12% 12 N HCl) and the absorbance was measured at 570 nm using 650 nm as a reference with a plate reader (Tecan, Switzerland).
(§2) Human TLR4 reporter cells Murine TLR4 reporter cells
(§3) [Compound] 1 μM 10 [Compound] 1 μM 10
(§4) Supplementary Figure 1. Dose response curves for cell viability (toxicity) of lead compounds in human and murine TLR4-NF-κB reporter cells. Cellular toxicity evaluated by MTT assay is presented as % viability normalized to vehicle (0.5% DMSO) as 100%. While 1Z105 had minimal toxicity in both hTLR4 and mTLR4 reporter cells (HEK-BlueTM hTLR4 and HEK-BlueTM mTLR4, […]
(§5) (also on this page, place not known: %Relative (Normalized 100%) 101101 viability vehicle as to)

mBMDCs [2] = assay: IL-12 and IL-6 production in mouse BMDCs (ELISA); assay type: cell-based
Description: (§6) Human PBMC (10^6 cells/mL) were treated with 5 μM 1Z105 and 2B182C overnight and the culture supernatant assessed for human IL-8 by ELISA. Mouse BMDCs (10^6 cells/mL) were incubated with serially diluted compounds (2-fold dilution from 5 μM). 0.5% DMSO was used as vehicle. IL-12 and IL-6 levels in the supernatant were measured by ELISA. ELISA was performed as previously described ([57]). Reagents and dilution factors of antibodies are described in Supplementary Table 1.

mouse TLR4 = biological target: T1, mouse TLR4 (Mus musculus, UniProt Q9JHF9+Q9QUK6); assay: TLR4/NF-κB reporter cell assay (SEAP), HEK-Blue mTLR4; assay type: cell-based; details: for EC50: 20 h, 2-fold serial dilutions from 10 μM, NF-κB SEAP, read-out: EC50 on mTLR4 reporter cells; for murine TLR4 agonistic activity (in words): AUC normalized to 2B110 as 100%, Figure 1C
T1 construct: host or cells: HEK-Blue mTLR4 (HEK293-derived NF-κB/SEAP reporter cells)
T1 sequence (Q9QUK6 26-835): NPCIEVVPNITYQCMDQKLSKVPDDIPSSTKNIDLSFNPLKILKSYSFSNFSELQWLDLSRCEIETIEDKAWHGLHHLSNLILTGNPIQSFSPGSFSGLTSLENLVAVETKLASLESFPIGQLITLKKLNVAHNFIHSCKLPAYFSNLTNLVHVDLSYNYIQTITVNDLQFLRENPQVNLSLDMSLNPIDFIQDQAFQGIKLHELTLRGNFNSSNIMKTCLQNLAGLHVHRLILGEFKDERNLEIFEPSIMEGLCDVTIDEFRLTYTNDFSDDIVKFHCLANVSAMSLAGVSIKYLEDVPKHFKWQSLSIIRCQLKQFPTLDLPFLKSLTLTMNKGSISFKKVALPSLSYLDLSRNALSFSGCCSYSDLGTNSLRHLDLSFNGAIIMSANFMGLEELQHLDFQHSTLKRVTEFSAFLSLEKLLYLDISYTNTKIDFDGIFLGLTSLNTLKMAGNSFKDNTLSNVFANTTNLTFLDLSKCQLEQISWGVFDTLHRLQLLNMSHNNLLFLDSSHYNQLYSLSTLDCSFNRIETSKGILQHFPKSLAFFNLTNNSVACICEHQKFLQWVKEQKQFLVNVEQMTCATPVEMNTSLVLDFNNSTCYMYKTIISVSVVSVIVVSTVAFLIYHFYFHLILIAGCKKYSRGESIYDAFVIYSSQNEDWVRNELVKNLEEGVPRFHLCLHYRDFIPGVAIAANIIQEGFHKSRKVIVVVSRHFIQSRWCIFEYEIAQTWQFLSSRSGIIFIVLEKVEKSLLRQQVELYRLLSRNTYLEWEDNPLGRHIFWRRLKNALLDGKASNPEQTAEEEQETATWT
T1 sequence (Q9JHF9 19-160): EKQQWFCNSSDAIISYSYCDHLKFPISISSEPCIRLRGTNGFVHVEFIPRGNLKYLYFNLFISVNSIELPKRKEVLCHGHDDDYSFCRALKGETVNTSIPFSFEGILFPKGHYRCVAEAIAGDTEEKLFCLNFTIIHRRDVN
Description: (§7) Figure 1 Structure-activity relationship studies in TLR4 agonistic pyrimidoindoles. (A) Syntheses of C8-alkynyl and C8-alkyl analogs. (B) Syntheses of C8-aryl analogs. (C) Scatter plot of hTLR4 and mTLR4 agonistic activity in TLR4-NF-κB HEK reporter cells (HEK-Blue™ hTLR4 and HEK-Blue™ mTLR4, respectively). NF-κB inducible NF-κB SEAP levels in culture supernatants were measured according to manufacturer's protocol. The TLR4 agonistic potency was evaluated as area under the curve (AUC) calculated for dose response curve using 2-fold serial dilutions from 10 μM, and normalized to the AUC for 2B110 as 100% on both axes. […] The color of each point is based on cell viability in TLR4-NF-κB reporter cells for compounds evaluated at 5 μM concentration. Viability data was normalized to vehicle control (Vehicle OD570−650 = 0.58 ± 0.01). (D) Structures of the lead compounds with differences at C8 substitution highlighted in blue.
(§8) Titration curves of 1Z105 and derivatives were used to assess their potency in stimulating human and mouse TLR4 response using HEK NF-κB reporter cells (HEK-Blue™ hTLR4 and mTLR4, respectively). The areas under the curve for dose response curves relative to vehicle (0.5% DMSO) were normalized to the greatest activity as 100% of 2B110 for both assays (Figure 1C). The compounds were also tested for in vitro toxicity by MTT assay (Figure 1C, Supplementary Figure 1).
as §1

[3] = test system: HEK-Blue mTLR4 reporter cells; assay: MTT cell viability, murine TLR4 reporter cells; assay type: cell-based; details: dose response, % viability normalized to vehicle (0.5% DMSO)
Description: as §1, §2, §3, §4, §5

human TLR4 = biological target: T2, human TLR4 (Homo sapiens, UniProt O00206+Q9Y6Y9); assay: TLR4/NF-κB reporter cell assay (SEAP), HEK-Blue hTLR4; assay type: cell-based; details: for human TLR4 agonistic activity (in words): AUC normalized to 2B110 as 100%, Figure 1C
T2 construct: host or cells: HEK-Blue hTLR4 (HEK293-derived NF-κB/SEAP reporter cells)
T2 sequence (O00206 24-839): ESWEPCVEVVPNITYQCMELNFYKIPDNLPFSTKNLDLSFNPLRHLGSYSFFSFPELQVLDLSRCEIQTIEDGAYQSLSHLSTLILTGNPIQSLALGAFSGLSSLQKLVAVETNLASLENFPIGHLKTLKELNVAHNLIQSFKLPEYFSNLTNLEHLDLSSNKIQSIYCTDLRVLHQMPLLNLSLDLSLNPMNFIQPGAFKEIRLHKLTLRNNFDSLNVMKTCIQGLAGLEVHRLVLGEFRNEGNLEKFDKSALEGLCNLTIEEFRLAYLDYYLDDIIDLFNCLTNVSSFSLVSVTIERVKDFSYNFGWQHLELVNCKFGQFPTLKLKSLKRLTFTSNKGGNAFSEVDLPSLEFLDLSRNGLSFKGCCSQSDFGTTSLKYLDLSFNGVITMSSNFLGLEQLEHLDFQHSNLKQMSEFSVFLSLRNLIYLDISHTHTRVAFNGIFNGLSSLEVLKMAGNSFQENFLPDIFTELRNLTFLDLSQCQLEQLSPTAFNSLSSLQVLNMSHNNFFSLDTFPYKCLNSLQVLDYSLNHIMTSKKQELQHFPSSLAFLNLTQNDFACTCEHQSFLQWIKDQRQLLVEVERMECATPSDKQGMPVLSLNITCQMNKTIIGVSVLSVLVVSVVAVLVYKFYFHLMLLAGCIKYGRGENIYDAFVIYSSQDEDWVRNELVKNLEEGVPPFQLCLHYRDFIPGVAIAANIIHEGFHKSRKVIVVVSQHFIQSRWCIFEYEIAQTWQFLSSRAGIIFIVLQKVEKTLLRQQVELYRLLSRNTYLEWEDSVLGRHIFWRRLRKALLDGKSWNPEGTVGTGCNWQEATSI
T2 sequence (Q9Y6Y9 17-160 limits assumed): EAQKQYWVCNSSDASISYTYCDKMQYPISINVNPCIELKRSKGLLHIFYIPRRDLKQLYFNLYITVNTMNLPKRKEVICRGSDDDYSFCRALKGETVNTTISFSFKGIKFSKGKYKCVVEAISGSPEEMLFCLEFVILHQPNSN
Description: as §7, §8, §1

hPBMCs = assay: IL-8 release from human PBMC (ELISA); assay type: cell-based; details: 5 μM, overnight; compared to 1Z105
Description: as §6

[4] = test system: IIAV A/California/04/2009 (H1N1)pdm09 HA and NA; assay: Prime-boost vaccination model with IIAV, serum anti-HA/anti-NA IgG ELISA; assay type: in vivo, BALB/c mice; details: i.m. IIAV 10 μg + adjuvant days 0 and 21, sera day 28; 1V270 1 nmol, TLR4 ligand 200 nmol/injection
[5] = test system: TLR4-NF-κB reporter cells; assay: MTT cell viability in TLR4-NF-κB reporter cells; assay type: cell-based; details: 10 µM, MTT, Supplementary Figure 1
Description: as §7, §1

mBMDCs [6] = assay: CD40 and CD86 expression on BMDCs (flow cytometry); assay type: cell-based, mouse; details: 1 μM, 20 h; compared to 1Z105
Description: Detailed information for reagents used in flow cytometry analysis are shown in Supplementary Table 2. For co-stimulatory molecules on mBMDCs, mBMDCs (10^6 cells/mL) were incubated with 1 μM 1Z105 and 2B182C for 20 h. 0.5% DMSO was uses as vehicle. After removing the supernatant, cells were washed with the stain buffer (BD Biosciences, San Diego, CA) and incubated with anti-mouse CD16/32 antibody for blocking FcR. Cells were then stained with an antibody cocktail with anti-CD40 and anti-CD86 antibodies for 20–30 min at 4°C. For analysis of lymphocytes harvested from draining lymph nodes, two antibody cocktails were prepared; (1) anti-CD3, anti-CD4, anti-PD-1, and anti-CXCR5 antibodies for Tfh cell analysis, (2) anti-CD3, anti-CD19, anti-CD95, anti-CD138, and anti-GL7 antibodies for B cell analysis. After blocking with anti-CD16/CD32 antibody, 2 × 10^6 cells were stained in each antibody cocktail. For Tfh cell analysis, after staining with primary antibodies, cells were washed with PBS, and incubated with streptavidin-PE. Cells were then washed and stained with propidium iodide to determine live/dead cells. Data were acquired using MACSQuant Analyzer 10 (Miltenyi Biotec, Germany) and analyzed using FlowJo (version 10.6.1, Becton Dickinson, Ashland, OR).

[7] = Mus musculus, BMDC, read-out: EC50 for IL-6 production in mBMDCs, 2-fold dilution from 5 μM
[8] = Mus musculus, BMDC, read-out: EC50 for IL-12 production in mBMDCs, 2-fold dilution from 5 μM

Row | SMILES | toxicity, hTLR4 reporter cells (in words) [1] | EC50 (mBMDCs [2]; [7]) [nM] | EC50 (mBMDCs [2]; [8]) [nM] | EC50 (mouse TLR4) [µM] | toxicity, mTLR4 reporter cells (in words) [3] | EC50 (human TLR4; 20 h, 2-fold serial dilutions from 10 μM, NF-κB SEAP, read-out: EC50 on hTLR4 reporter cells) [nM] | human TLR4 agonistic activity (in words) (human TLR4) | human TLR4 agonistic activity (in words) (human TLR4; listed as 8s) | fold more potent than 1Z105, hTLR4 reporter cells (human TLR4; ratio of EC50) | IL-8 secretion by hPBMCs (in words) (hPBMCs) | serum anti-HA IgG1 (in words) [4] | serum anti-NA IgG1 (in words) [4] | serum anti-NA IgG2a (in words) [4] | EC50 (mBMDCs [2]; read-out: EC50 for IL-6 production in mBMDCs, 2-fold dilution from 5 μM) [nM] | toxicity at 10 µM (in words) [5] | CD40 expression on mBMDCs (in words) (mBMDCs [6]) | CD86 expression on mBMDCs (in words) (mBMDCs [6]) | murine TLR4 agonistic activity (in words) (mouse TLR4) | murine TLR4 agonistic activity (in words) (mouse TLR4; listed as 8s) | fold more potent than 1Z105, mTLR4 reporter line (mouse TLR4; ratio of EC50) [fold]
1 | Cn1c2ccccc2c2nc(SCC(=O)NC3CCCCC3)n(-c3ccccc3)c(=O)c21 [1Z105, N-cyclohexyl-2-((5-methyl-4-oxo-3-phenyl-4,5-dihydro-3H-pyrimido[5,4-b]indol-2-yl)thio)acetamide] | minimal | 630 | 770 | 7.49 | minimal |  |  |  |  |  |  |  |  |  |  |  |  |  |  | 
2 | Cn1c2ccc(-c3ccco3)cc2c2nc(SCC(=O)NC3CCCCC3)n(-c3ccccc3)c(=O)c21 [2B182C] |  | 160 | 200 | 1.65 |  | 1660 | high TLR4 stimulatory potency | potency equivalent to that of compound 2B110 | approximately 800 fold | higher level of IL-8 secretion | significantly increased; also recorded: higher serum anti-HA and anti-NA IgG1 levels compared to 1Z105 | significantly increased; also recorded: higher serum anti-HA and anti-NA IgG1 levels compared to 1Z105 | enhanced | 120 | exhibited toxicity | significantly higher expression levels | significantly higher expression levels | high TLR4 stimulatory potency | potency equivalent to that of compound 2B110 | 4

From publication PMC7318308, “A Novel Synthetic Dual Agonistic Liposomal TLR4/7 Adjuvant Promotes Broad Immune Responses in an Influenza Vaccine With Minimal Reactogenicity” (Frontiers in Immunology, 2020)
